In brackets after ≈: the same amount, converted by molar mass. Several values for one entry are separate records, joined by “and”; a condition that tells them apart may be missing. Identical values can stand only once. Like-named read-outs stand apart in the source and are kept apart here.
Columns and labels:
Malassezia pachydermatis = experiment: Checkerboard MIC/FICI of NCL812 and EDTA (Example 2); format: cell-based; conditions: for MIC: Malassezia pachydermatis, read-out: MIC, compound alone; for MIC, combination: EDTA + NCL812 combination; for FICI: NCL812 with EDTA
Source text: There is no recommended CLSI standard for M. pachydermatis. In the literature there are a number of papers which have developed MIC methodology for Malassezia species isolated from both humans and animals (ie both lipophilic and non-lipophilic species). In all papers the methodology has been altered from the original CLSI protocols in order to overcome four main problem areas involved in testing this yeast. • 1) Finding a suitable growth medium for Malassezia, especially the lipophilic species. […] The method followed was originally developed by Eichenberg et al. (2003) (mSAB broth microdilution method). The mSAB method was devised to follow as closely as possible the CLSI guidelines whilst still allowing for the distinct biochemical and growth requirements of M. pachydermatis. […] Briefly, 150 μl of SDB+1% TW80 was added to each well of a 96-well microtiter plate, which was used as the checkerboard challenge plate. Next, a two-fold serial dilution of NCL 812 (robenidine) working solution was performed along the abscissa (column 3 to 12 only) (1/2 to 1/1024 dilution ratio). […] Experiments were performed in duplicate and repeated twice. […] The FICI values were interpreted as follows (Hamoud et al., 2015).

Candida albicans [1] = experiment: as above; format: cell-based; conditions: isolate Candida albicans
Candida albicans [2] = experiment: CLSI broth microdilution MIC (Example 4); format: cell-based; conditions: for antifungal activity against the two isolates of Candida albicans: summary in words
In short: (§1)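 CLSI broth microdilution in RPMI 1640 with two-fold compound dilutions and inoculum about 2×10^3 cells/mL. Plates incubated 35° C for 24-48 hours; MICs determined in duplicate, with a third test when the duplicates differed.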

Cryptococcus neoformans = experiment: CLSI broth microdilution MIC (Example 4); format: cell-based
In short: as §1

C. gattii = experiment: CLSI broth microdilution MIC (Example 6); format: cell-based, Cryptococcus gattii
In short: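 CLSI broth microdilution in RPMI 1640, compounds serially double-diluted, inoculum about 2×10^3 cells/mL. Incubation at 35° C for 24-48 hours. MICs determined per isolate in duplicate, with a third repeat if values differed.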

[3] = system: Candida albicans ATCC14053; experiment: Broth micro-dilution screen at 16 μg/mL and MIC (Example 9); format: cell-based; conditions: for MIC: C. albicans ATCC14053, test range 0.25-64 μg/mL, duplicate; for Screen at 16 μg/mL: single concentration 16 μg/mL, Growth or No growth of C. albicans ATCC14053
Description: The antifungal activity of 201 NCL analogs against Candida albicans ATCC14053 in vitro was investigated. A broth micro-dilution method was used, according to CLSI guidelines as described. NCL analogs were dissolved in DMSO and originally screened at a single concentration of 16 μg/mL.

[4] = human clinical isolate C. gattii 16-90050373
[5] = human clinical isolate C. gattii 17-90028211

## N=C(N/N=C/c1ccc(Cl)cc1)N/N=C/c1ccc(Cl)cc1 [NCL812, robenidine, reference compound]
Malassezia pachydermatis; isolate ML18
  MIC: 1 µg/mL
  MIC, combination: 0.5 µg/mL
  FICI: 1
Malassezia pachydermatis; isolate ML19
  MIC: 2 µg/mL
  MIC, combination: 1 µg/mL
  FICI: 1
Malassezia pachydermatis; isolate ML20
  MIC: 1 µg/mL
  MIC, combination: 0.5 µg/mL
  FICI: 1
Malassezia pachydermatis; isolate ML21
  MIC: 2 µg/mL
  MIC, combination: 1 µg/mL
  FICI: 1
Malassezia pachydermatis; isolate ML36
  MIC: 2 µg/mL
  MIC, combination: 1 µg/mL
  FICI: 1
Malassezia pachydermatis; isolate ML41
  MIC: 2 µg/mL
  MIC, combination: 0.5 µg/mL
  FICI: 0.75
Malassezia pachydermatis; isolate ML42
  MIC: 2 µg/mL
  MIC, combination: 1 µg/mL
  FICI: 1
Malassezia pachydermatis; isolate ML43
  MIC: 4 µg/mL
  MIC, combination: 2 µg/mL
  FICI: 1
Malassezia pachydermatis; isolate ML44
  MIC: 1 µg/mL
  MIC, combination: 0.5 µg/mL
  FICI: 1
Malassezia pachydermatis; isolate ML69
  MIC: 2 µg/mL
  MIC, combination: 1 µg/mL
  FICI: 1
Malassezia pachydermatis; each of the 11 isolates (10 Malassezia, 1 Candida albicans)
  interaction of NCL812 and EDTA (FICI interpretation): Synergy (FICI ≤ 0.5)
Candida albicans [1]; EDTA + NCL812 combination
  MIC, combination: 1 µg/mL
Candida albicans [1]; NCL812 with EDTA
  FICI: 0.75
Candida albicans [1]; read-out: MIC, compound alone
  MIC: 4 µg/mL
Candida albicans [2]; ATCC90028, read-out: MIC at 24-48 hours, Candida albicans ATCC 90028
  MIC: 2 µg/mL (≈ 5.98 µM)
Candida albicans [2]; read-out: MIC at 24-48 hours, Candida albicans SA3
  MIC: 2 µg/mL (≈ 5.98 µM)
Candida albicans [2]
  antifungal activity against the two isolates of Candida albicans: high antifungal activity
Cryptococcus neoformans; Cryptococcus neoformans SA2
  MIC at 24-48 hours: 2 µg/mL (≈ 5.98 µM)
Cryptococcus neoformans; read-out: MIC at 24-48 hours, Cryptococcus neoformans SA1
  MIC: 2 µg/mL (≈ 5.98 µM)
Cryptococcus neoformans; two isolates of Cryptococcus neoformans, summary range, read-out: MICs
  MIC: 1 to 16 µg/mL (≈ 2.99 to 47.9 µM)
C. gattii; Cryptococcus gattii, human clinical isolate C. gattii 17-90028217, read-out: MIC
  MIC: 16 µg/mL (≈ 47.9 µM)
C. gattii; [4]
  MIC: 16 µg/mL (≈ 47.9 µM)
C. gattii; [5]
  MIC: 16 µg/mL (≈ 47.9 µM)
[3]; 16 μg/mL screen, summary in words
  activity against Candida albicans at the low discriminating concentration: high activity
[3]; Candida albicans, read-out: MIC
  MIC: 0.5 µg/mL (≈ 1.5 µM)
[3]
  Screen at 16 μg/mL: No growth

## Cc1ccc(/C=N/Nc2cc(N/N=C/c3ccc(C)cc3)nc(N)n2)cc1 [NCL195]
Candida albicans [2]; Candida albicans ATCC 90028
  MIC at 24-48 hours: 2 µg/mL (≈ 5.56 µM)
Candida albicans [2]; Candida albicans SA3
  MIC at 24-48 hours: 2 µg/mL (≈ 5.56 µM)
Candida albicans [2]
  antifungal activity against the two isolates of Candida albicans: high antifungal activity
Cryptococcus neoformans; Cryptococcus neoformans SA1
  MIC at 24-48 hours: 2 µg/mL (≈ 5.56 µM)
Cryptococcus neoformans; Cryptococcus neoformans SA2
  MIC at 24-48 hours: 2 µg/mL (≈ 5.56 µM)
C. gattii; human clinical isolate C. gatti 17-90232099
  MIC: 2 µg/mL (≈ 5.56 µM)
C. gattii; [4]
  MIC: 2 µg/mL (≈ 5.56 µM)
C. gattii; [5]
  MIC: 2 µg/mL (≈ 5.56 µM)
C. gattii; human clinical isolate C. gattii 17-90028217
  MIC: 2 µg/mL (≈ 5.56 µM)
C. gattii; human clinical isolate C. gattii 17-90028242
  MIC: 2 µg/mL (≈ 5.56 µM)
[3]
  MIC: 1 µg/mL and 2 µg/mL
  Screen at 16 μg/mL: No growth
